Results from US10519152B2, “Compounds and their use in treating cancer” (AstraZeneca AB, priority 2017, dated 2019).

Biological target: T1, Estrogen Receptor (ERα) in MCF-7 human ductal carcinoma breast cell line (Homo sapiens, UniProt P03372)
T1 construct: endogenous in cells; host or cells: MCF-7
T1 sequence (P03372 1-595): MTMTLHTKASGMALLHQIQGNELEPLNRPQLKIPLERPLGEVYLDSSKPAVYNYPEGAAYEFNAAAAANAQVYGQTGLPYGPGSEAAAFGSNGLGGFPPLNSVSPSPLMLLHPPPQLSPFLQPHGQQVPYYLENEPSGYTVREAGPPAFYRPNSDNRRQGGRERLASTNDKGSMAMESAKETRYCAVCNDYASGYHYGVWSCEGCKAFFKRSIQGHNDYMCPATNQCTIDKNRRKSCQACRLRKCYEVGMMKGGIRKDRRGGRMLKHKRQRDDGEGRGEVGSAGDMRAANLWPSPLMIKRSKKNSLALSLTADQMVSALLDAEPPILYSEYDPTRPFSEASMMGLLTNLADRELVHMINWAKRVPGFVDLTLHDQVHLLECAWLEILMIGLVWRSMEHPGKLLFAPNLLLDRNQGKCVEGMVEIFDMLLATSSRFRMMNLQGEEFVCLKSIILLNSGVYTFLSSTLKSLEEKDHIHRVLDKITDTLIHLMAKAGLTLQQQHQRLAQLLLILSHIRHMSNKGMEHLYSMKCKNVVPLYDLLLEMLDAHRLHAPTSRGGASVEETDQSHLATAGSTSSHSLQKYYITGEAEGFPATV
Assay: MCF-7 ER degradation assay (cell based immuno-fluorescence)
Settings: MCF-7 cells; for ER degradation ≥ 90% at 0.3 μM: ER degradation by fulvestrant at 0.3 μM is defined as 100%; for DC50: 18-22 hours incubation, 50% reduction of ERα expression, single experiment or average of two or more, read-out: MCF-7 ER degradation IC50
Procedure, shortened: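 MCF-7 human ductal carcinoma breast cells were seeded at 3.75×10^4 cells per mL (40 μL per well) in 384 well plates with phenol red free DMEM containing 2 mM L-Glutamine and 5% (v/v) Charcoal/Dextran treated foetal calf serum. After overnight culture, compounds were acoustically dispensed, incubated 18-22 hours, then cells were formaldehyde-fixed and immunostained for ERα.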

## Cc1ncsc1-c1ccc(CNC(=O)[C@@H]2C[C@@H](O)CN2C(=O)[C@@H](NC(=O)COCCOCCOCCOc2cc(F)c([C@@H]3c4[nH]c5ccccc5c4C[C@@H](C)N3CC3(F)CC3)c(F)c2)C(C)(C)C)cc1 [Example 77, (2S,4R)-1-((S)-2-(tert-Butyl)-14-(3,5-difluoro-4-((1R,3R)-2-((1-fluorocyclopropyl)methyl)-3-methyl-2,3,4,9-tetrahydro-1H-pyrido[3,4-b]indol-1-yl)phenoxy)-4-oxo-6,9,12-trioxa-3-azatetradecanoyl)-4-hydroxy-N-(4-(4-methylthiazol-5-yl)benzyl)pyrrolidine-2-carboxamide]
  ER degradation ≥ 90% at 0.3 μM: ••
  DC50: 1000 pM

## Cc1ncsc1-c1ccc(CNC(=O)[C@@H]2C[C@@H](O)CN2C(=O)[C@@H](NC(=O)COCCCCCCCOc2cc(F)c([C@@H]3c4[nH]c5ccccc5c4C[C@@H](C)N3CC(F)(F)CO)c(F)c2)C(C)(C)C)cc1 [Example 78, (2S,4R)-1-((S)-2-(2-((7-(4-((1R,3R)-2-(2,2-Difluoro-3-hydroxypropyl)-3-methyl-2,3,4,9-tetrahydro-1H-pyrido[3,4-b]indol-1-yl)-3,5-difluorophenoxy)heptyl)oxy)acetamido)-3,3-dimethylbutanoyl)-4-hydroxy-N-(4-(4-methylthiazol-5-yl)benzyl)pyrrolidine-2-carboxamide]
  ER degradation ≥ 90% at 0.3 μM: ••
  DC50: 600 pM

## Cc1ncsc1-c1ccc(CNC(=O)[C@@H]2C[C@@H](O)CN2C(=O)[C@@H](NC(=O)COCCCCCOc2cc(F)c([C@@H]3c4[nH]c5ccccc5c4C[C@@H](C)N3CC3(F)CC3)c(F)c2)C(C)(C)C)cc1 [Example 79, (2S,4R)-1-((S)-2-(2-((5-(3,5-difluoro-4-((1R,3R)-2-((1-fluorocyclopropyl)methyl)-3-methyl-2,3,4,9-tetrahydro-1H-pyrido[3,4-b]indol-1-yl)phenoxy)pentyl)oxy)acetamido)-3,3-dimethylbutanoyl)-4-hydroxy-N-(4-(4-methylthiazol-5-yl)benzyl)pyrrolidine-2-carboxamide]
  ER degradation ≥ 90% at 0.3 μM: •
  DC50: 2000 pM

## Cc1ncsc1-c1ccc(CNC(=O)[C@@H]2C[C@@H](O)CN2C(=O)[C@@H](NC(=O)COCCO[C@H](C)[C@@H](C)OCCOc2cc(F)c([C@@H]3c4[nH]c5ccccc5c4C[C@@H](C)N3CC(C)(C)F)c(F)c2)C(C)(C)C)cc1 [Example 80, (2S,4R)-1-((2S,10R,11R)-2-(tert-butyl)-14-(3,5-difluoro-4-((1R,3R)-2-(2-fluoro-2-methylpropyl)-3-methyl-2,3,4,9-tetrahydro-1H-pyrido[3,4-b]indol-1-yl)phenoxy)-10,11-dimethyl-4-oxo-6,9,12-trioxa-3-azatetradecanoyl)-4-hydroxy-N-(4-(4-methylthiazol-5-yl)benzyl)pyrrolidine-2-carboxamide]
  ER degradation ≥ 90% at 0.3 μM: ••
  DC50: 700 pM

## Cc1ncsc1-c1ccc(CNC(=O)[C@@H]2C[C@@H](O)CN2C(=O)[C@@H](NC(=O)COCCO[C@@H](C)[C@H](C)OCCOc2cc(F)c([C@@H]3c4[nH]c5ccccc5c4C[C@@H](C)N3CC(C)(C)F)c(F)c2)C(C)(C)C)cc1 [Example 82, (2S,4R)-1-((2S,10S,11S)-2-(tert-butyl)-14-(3,5-difluoro-4-((1R,3R)-2-(2-fluoro-2-methylpropyl)-3-methyl-2,3,4,9-tetrahydro-1H-pyrido[3,4-b]indol-1-yl)phenoxy)-10,11-dimethyl-4-oxo-6,9,12-trioxa-3-azatetradecanoyl)-4-hydroxy-N-(4-(4-methylthiazol-5-yl)benzyl)pyrrolidine-2-carboxamide]
  ER degradation ≥ 90% at 0.3 μM: ••
  DC50: 200 pM

## Cc1ncsc1-c1ccc(CNC(=O)[C@@H]2C[C@@H](O)CN2C(=O)[C@@H](NC(=O)COCCOCCOCCCCNC(=O)c2cc(F)c([C@@H]3c4[nH]c5ccccc5c4C[C@@H](C)N3CC(C)(C)F)c(F)c2)C(C)(C)C)cc1 [Example 83, (2S,4R)-1-((S)-17-(tert-Butyl)-1-(3,5-difluoro-4-((1R,3R)-2-(2-fluoro-2-methylpropyl)-3-methyl-2,3,4,9-tetrahydro-1H-pyrido[3,4-b]indol-1-yl)phenyl)-1,15-dioxo-7,10,13-trioxa-2,16-diazaoctadecan-18-oyl)-4-hydroxy-N-(4-(4-methylthiazol-5-yl)benzyl)pyrrolidine-2-carboxamide]
  ER degradation ≥ 90% at 0.3 μM: ••
  DC50: 600 pM

## Cc1ncsc1-c1ccc(CNC(=O)[C@@H]2C[C@@H](O)CN2C(=O)[C@@H](NC(=O)COCCOCCOCCCNC(=O)c2cc(F)c([C@@H]3c4[nH]c5ccccc5c4C[C@@H](C)N3CC(C)(C)F)c(F)c2)C(C)(C)C)cc1 [Example 84, (2S,4R)-1-((S)-16-(tert-Butyl)-1-(3,5-difluoro-4-((1R,3R)-2-(2-fluoro-2-methylpropyl)-3-methyl-2,3,4,9-tetrahydro-1H-pyrido[3,4-b]indol-1-yl)phenyl)-1,14-dioxo-6,9,12-trioxa-2,15-diazaheptadecan-17-oyl)-4-hydroxy-N-(4-(4-methylthiazol-5-yl)benzyl)pyrrolidine-2-carboxamide]
  ER degradation ≥ 90% at 0.3 μM: ••
  DC50: 700 pM

## Cc1ncsc1-c1ccc(CNC(=O)[C@@H]2C[C@@H](O)CN2C(=O)[C@@H](NC(=O)COCc2ccc(COc3cc(F)c([C@@H]4c5[nH]c6ccccc6c5C[C@@H](C)N4CC(C)(C)F)c(F)c3)nc2)C(C)(C)C)cc1 [Example 85, (2S,4R)-1-((S)-2-(2-((6-((3,5-difluoro-4-((1R,3R)-2-(2-fluoro-2-methylpropyl)-3-methyl-2,3,4,9-tetrahydro-1H-pyrido[3,4-b]indol-1-yl)phenoxy)methyl)pyridin-3-yl)methoxy)acetamido)-3,3-dimethylbutanoyl)-4-hydroxy-N-(4-(4-methylthiazol-5-yl)benzyl)pyrrolidine-2-carboxamide]
  ER degradation ≥ 90% at 0.3 μM: ••
  DC50: 600 pM

## Cc1ncsc1-c1ccc(CNC(=O)[C@@H]2C[C@@H](O)CN2C(=O)[C@@H](NC(=O)COCc2ccc(COc3cc(F)c([C@@H]4c5[nH]c6ccccc6c5C[C@@H](C)N4CC(C)(C)F)c(F)c3)cn2)C(C)(C)C)cc1 [Example 86, (2S,4R)-1-((S)-2-(2-((5-((3,5-Difluoro-4-((1R,3R)-2-(2-fluoro-2-methylpropyl)-3-methyl-2,3,4,9-tetrahydro-1H-pyrido[3,4-b]indol-1-yl)phenoxy)methyl)pyridin-2-yl)methoxy)acetamido)-3,3-dimethylbutanoyl)-4-hydroxy-N-(4-(4-methylthiazol-5-yl)benzyl)pyrrolidine-2-carboxamide]
  ER degradation ≥ 90% at 0.3 μM: ••
  DC50: 600 pM

## Cc1ncsc1-c1ccc(CNC(=O)[C@@H]2C[C@@H](O)CN2C(=O)[C@@H](NC(=O)COCCOCCOCCNC(=O)c2cc(F)c([C@@H]3c4[nH]c5ccccc5c4C[C@@H](C)N3CC(C)(C)F)c(F)c2)C(C)(C)C)cc1 [Example 91, (2S,4R)-1-((S)-15-(tert-Butyl)-1-(3,5-difluoro-4-((1R,3R)-2-(2-fluoro-2-methylpropyl)-3-methyl-2,3,4,9-tetrahydro-1H-pyrido[3,4-b]indol-1-yl)phenyl)-1,13-dioxo-5,8,11-trioxa-2,14-diazahexadecan-16-oyl)-4-hydroxy-N-(4-(4-methylthiazol-5-yl)benzyl)pyrrolidine-2-carboxamide]
  ER degradation ≥ 90% at 0.3 μM: ••
  DC50: 300 pM
